{"source": "patent US20230002368A1", "about": "“USE OF COMPOUNDS FOR THE PREVENTION AND/OR TREATMENT OF ANKYLOSING SPONDYLITIS, AND CORRESPONDING COMPOSITIONS” (NUVAMID SA, priority 2019, published 2023)", "key": {"[1]": {"system": "TgA86 mice as a model for ankylosing spondylitis", "assay": "TgA86 mouse model of ankylosing spondylitis: joint score and tail score", "format": "in vivo", "conditions": "male TgA86 mice, NMN 185 mg/kg intraperitoneally", "procedure": "(§1) The efficacy of the use of NMN (compound IE) according to the invention was evaluated in 3-week-old TgA86 mice as a model for ankylosing spondylitis. TgA86 mice develop peripheral and axial AS with an incidence of 100%. In these mice, the peripheral form is manifested by joint welling and paw deformation, whilst the axial form is clinically characterised by curved tails and pelvic ankylosis.\n(§2) In brief, male TgA86 mice were divided into two groups of 10 mice each: (i) a control group, in which the mice were treated with vehicle, i.e. a 0.9% NaCl solution (10 mL/kg), marked ‘Vehicle’; […] a group of mice treated with NMN (185 mg/kg), marked ‘NMN’. The solutions were injected intraperitoneally.\nThe mice were treated for 10 weeks under the conditions set forth supra. The joint score, tail score, and weight of the mice were measured every week. The joint score was determined in accordance with table 3 infra:\nThe tail score is an indicator that allows for an evaluation of the axial form of AS and pelvic ankylosis (see https://www.biomedcode.com/wp-content/uploads/2019/07/TgA86-white-paper.pdf). The tail score was determined in accordance with table 4 infra: […]"}, "[2]": {"assay": "Weight and tolerance of treated TgA86 mice", "format": "in vivo", "conditions": "male TgA86 mice, NMN 185 mg/kg intraperitoneally, 10 weeks", "procedure": "as §1, §2\nThe mice were treated for 10 weeks under the conditions set forth supra. The joint score, tail score, and weight of the mice were measured every week. The joint score was determined in accordance with table 3 infra: […]"}}, "data": [{"smiles": "NC(=O)c1ccc[n+]([C@@H]2O[C@H](COP(=O)([O-])O)[C@@H](O)[C@H]2O)c1", "note": "[NMN, nicotinamide mononucleotide]", "values": [{"measurement": "average joint score (peripheral AS)", "setting": "[1]; 10 weeks, vs vehicle control group (FIG. 2)", "value": "reduction in the joint score of the mice compared to the control group"}, {"measurement": "average tail score (axial AS, pelvic ankylosis)", "setting": "[1]; 10 weeks, vs vehicle control group (FIG. 3)", "value": "reduces the tail score in the mice treated compared to the control group"}, {"measurement": "significance of the joint score reduction over time", "setting": "[1]; T-test vs vehicle (FIG. 2)", "value": "particularly significant starting in the 5th week of treatment"}, {"measurement": "significance of the tail score reduction over time", "setting": "[1]; T-test vs vehicle (FIG. 3)", "value": "significant starting in the second week of treatment"}, {"measurement": "tolerance / toxicity in the animals", "setting": "[2]", "value": "well tolerated by the mice and does not cause any distress or toxicity in the animals"}, {"measurement": "development of the average weight of mice", "setting": "[2]; measured every week, vs vehicle (FIG. 1)", "value": "follows a similar course of development to that of the control group"}]}]}
